Measurements taken from patent US11363816B2, “4-amino-6-(heterocyclic)picolinates and 6-amino-2-(heterocyclic)pyramidine-4-carboxylates and their use as herbicides” (Dow AgroSciences LLC, priority 2017, dated 2022).

Key:
Format in all cases: in vivo
[1] = tested on: PAPRH=Papaver rhoeas L. (common poppy); experiment: Postemergence field trial, Granon, Spain (Table 7)
Experimental: (§1) Field trials were established in Spain (Banares and Granon) and Germany (Bielefeld) to evaluate the efficacy of Compound 5, Compound 6, and Compound 7. Trials were designed as randomized complete blocks with three to four replicates. Trials were established in winter wheat with natural weed population with plot sizes of 2-2.5 meters (m) by 6-8 m (width×length). The crops were grown using normal cultural practices for fertilization, seeding, and maintenance to ensure good growth of the crop. All herbicide treatments were applied post-emergence with applications made to the crops at the BBCH 21 to 23 growth stage. Herbicides were applied with backpack or bicycle sprayers using air as a propellant. The sprayers utilized flat fan air-induction spray nozzles calibrated to deliver a uniform spray pattern that provided thorough coverage of the foliage using a 200 L/ha spray volume. All treatments were applied with methylated seed oil (MSO) at 1.25% v/v. Phytotoxicity to the weeds was assessed visually at several intervals after application as percent overall control, compared to an untreated control plot. In general, three to four replicates were assessed for each treatment. All treatment results are an average of three or four replicates. Compound 5, Compound 6, and Compound 7 were applied as emulsifiable concentrate (EC) formulations at 100 g ae/L EC, respectively.

[2] = tested on: SINAR=Sinapis arvensis L. (wild mustard); experiment: Postemergence field trial, Granon, Spain (Table 7)
Experimental: as §1

[3] = tested on: KCHSC=Kochia scoparia (L.) Schrad. (Kochia); experiment: Postemergent herbicidal activity in the greenhouse; details: 21-28 DAAA
Experimental: (§2) Seeds of the desired test plant species were planted in Sun Gro MetroMix® 306 planting mixture, which typically has a pH of 6.0 to 6.8 and an organic matter content of about 30 percent, in plastic pots with a surface area of 103.2 square centimeters (cm^2). When required to ensure good germination and healthy plants, a fungicide treatment and/or other chemical or physical treatment was applied. The plants were grown for 7-36 days (d) in a greenhouse with an approximate 14 hour (h) photoperiod which was maintained at about 18° C. during the day and 17° C. during the night. Nutrients and water were added on a regular basis and supplemental lighting was provided with overhead metal halide 1000-Watt lamps as necessary. The plants were employed for testing when they reached the second or third true leaf stage.
(§3) An aliquot of formulated Compound 5 (100 grams acid equivalent per liter (g ae/L); emusifiable concentrate (EC)), Compound 6 (100 g ae/L; EC) or Compound 7 (100 g ae/L; EC) was placed in a 25 mL glass vial and diluted in a volume of 1.25% (volume per volume (v/v)) aqueous Actirob B esterified rapeseed oil to obtain a stock solution. The concentrated stock solutions were diluted with an aqueous mixture of 1.25% v/v of aqueous Actirob B esterified rapeseed oil to provide the appropriate application rates. Compound requirements are based upon a 12 mL application volume at a rate of 187 liters per hectare (L/ha). Formulated compounds were applied to the plant material with an overhead Mandel track sprayer equipped with 8002E nozzles calibrated to deliver 187 L/ha over an application area of 0.503 square meters (m^2) at a spray height of 18 inches ([…]) above average plant canopy. Control plants were sprayed in the same manner with the solvent blank.
(§4) The treated plants and control plants were placed in a greenhouse as described above and watered by subirrigation to prevent washoff of the test compounds. After 20-22 d, the condition of the test plants as compared with that of the control plants was determined visually and scored on a scale of 0 to 100 percent where 0 corresponds to no injury and 100 corresponds to complete kill. […]
(§5) The values reported are means.

[4] = tested on: ANTAR=Anthemis arvensis (field chamomile); experiment: Postemergent herbicidal activity in the greenhouse; details: 21-28 DAAA
Experimental: as §2, §3, §4, §5

[5] = tested on: POLCO=Polygonum convolvulus L. (wild buckwheat); experiment: Postemergent herbicidal activity in the greenhouse; details: 21-28 DAAA
Experimental: as §2, §3, §4, §5

[6] = tested on: Res-PAPRH=Papaver rhoeas L. (common poppy) resistant to tribenuron and thifensulfuron (ALS) and 2,4-D; experiment: Postemergent herbicidal activity in the greenhouse; details: 21-28 DAAA
Experimental: as §2, §3, §4, §5

[7] = tested on: MATCH=Matricaria recutita L. (wild chamomile); experiment: Postemergent herbicidal activity in the greenhouse; details: 21-28 DAAA
Experimental: as §2, §3, §4, §5

[8] = tested on: MATIN=Matricaria inodora (scentless mayweed); experiment: Postemergent herbicidal activity in the greenhouse; details: 21-28 DAAA
Experimental: as §2, §3, §4, §5

[9] = tested on: CIRAR=Cirsium arvense (L.) Scop. (Canada thistle); experiment: Postemergent herbicidal activity in the greenhouse; details: 21-28 DAAA
Experimental: as §2, §3, §4, §5

[10] = tested on: STEME=Stellaria media (L.) Vill. (common chickweed); experiment: Postemergence field trial, Ellerslie, Alberta, Canada
Experimental: (§6) Field trials were established in Canada (in Ellerslie, Alberta; Nisku, Alberta and Hanley, Saskatchewan) to evaluate the efficacy of Compound 5, Compound 6, and Compound 7. Trials were designed as randomized complete blocks with four replicates. Trials were established in spring wheat with natural weed population with plot sizes of 2-3 meters (m) by 8-10 m (width×length). The crops were grown using normal cultural practices for fertilization, seeding, and maintenance to ensure good growth of the crop.
(§7) All herbicide treatments were applied post-emergence with applications made to the crops at BBCH (Phenological development stages of a plant) 14 to 22 growth stage. Herbicides were applied with backpack or bicycle sprayers using carbon dioxide (CO2) as a propellant. The sprayers utilized flat fan air-induction spray nozzles calibrated to deliver a uniform spray pattern that provided thorough coverage of the foliage using a 100 L/ha spray volume. All treatments were applied with methylated seed oil (MSO) at 1.25% v/v. Phytotoxicity to the weeds was assessed visually at several intervals after application as percent overall control, compared to an untreated control plot. In general, four replicates were assessed for each treatment. All treatment results are an average of four replicates.
(§8) Compound 5, Compound 6 and Compound 7 were applied as emulsifiable concentrate (EC) formulations at 100 g ae/L EC, respectively.

[11] = tested on: POLCO=Polygonum convolvulus L. (wild buckwheat); experiment: as above
Experimental: as §6, §7, §8

[12] = tested on: CHEAL=Chenopodium album L. (common lambsquarters); experiment: as above
Experimental: as §6, §7, §8

Compound	Percent (%) Visual Control PAPRH 68DAAA ([1]; 5 g ae/ha) [%]	Percent (%) Visual Control PAPRH 68DAAA ([1]; 10 g ae/ha) [%]	Percent (%) Visual Control PAPRH 68DAAA ([1]; 20 g ae/ha) [%]	Percent (%) Visual Control SINAR 48DAAA ([2]; 5 g ae/ha) [%]	Percent (%) Visual Control SINAR 48DAAA ([2]; 10 g ae/ha) [%]	Percent (%) Visual Control SINAR 48DAAA ([2]; 20 g ae/ha) [%]	Percent (%) Visual Control KCHSC ([3]; 10 g ae/ha) [%]	Percent (%) Visual Control KCHSC ([3]; 20 g ae/ha) [%]	Percent (%) Visual Control ANTAR ([4]; 10 g ae/ha) [%]	Percent (%) Visual Control ANTAR ([4]; 20 g ae/ha) [%]	Percent (%) Visual Control POLCO ([5]; 10 g ae/ha) [%]	Percent (%) Visual Control POLCO ([5]; 20 g ae/ha) [%]	Percent (%) Visual Control Res-PAPRH ([6]; 10 g ae/ha) [%]	Percent (%) Visual Control Res-PAPRH ([6]; 20 g ae/ha) [%]	Percent (%) Visual Control MATCH ([7]; 10 g ae/ha) [%]	Percent (%) Visual Control MATCH ([7]; 20 g ae/ha) [%]	Percent (%) Visual Control MATIN ([8]; 10 g ae/ha) [%]	Percent (%) Visual Control MATIN ([8]; 20 g ae/ha) [%]	Percent (%) Visual Control CIRAR ([9]; 10 g ae/ha) [%]	Percent (%) Visual Control CIRAR ([9]; 20 g ae/ha) [%]	also measured
C#CCOC(=O)c1nc(-c2ccc3cc[nH]c3c2F)c(F)c(N)c1Cl [Compound 5, prop-2-yn-1-yl 4-amino-3-chloro-5-fluoro-6-(7-fluoro-1H-indol-6-yl)picolinate]	58.3	72.7	79.3	85	94.8	95	76.7	82.7	100	83.3	100	100	87.5	100	54.2	68.9	100	100	56.7	58.3	Percent (%) Visual Control STEME 51DAAA ([10]; 10 g ae/ha): 66.3%; Percent (%) Visual Control STEME 51DAAA ([10]; 20 g ae/ha): 83.3%; Percent (%) Visual Control POLCO 51DAAA ([11]; 10 g ae/ha): 76.3%; Percent (%) Visual Control POLCO 51DAAA ([11]; 20 g ae/ha): 91%; Percent (%) Visual Control CHEAL 51DAAA ([12]; 10 g ae/ha): 98%; Percent (%) Visual Control CHEAL 51DAAA ([12]; 20 g ae/ha): 98%
N#CCOC(=O)c1nc(-c2ccc3cc[nH]c3c2F)c(F)c(N)c1Cl [Compound 6, cyanomethyl 4-amino-3-chloro-5-fluoro-6-(7-fluoro-1H-indol-6-yl)picolinate]	55	69.3	85.3	82.7	95	95.2	73.3	84.3	100	98.3	98.3	100	95	100	57	64	98.3	100	50	58.3	Percent (%) Visual Control STEME 51DAAA ([10]; 10 g ae/ha): 83.8%; Percent (%) Visual Control STEME 51DAAA ([10]; 20 g ae/ha): 75.8%; Percent (%) Visual Control STEME 51DAAA ([10]; 40 g ae/ha): 90%; Percent (%) Visual Control POLCO 51DAAA ([11]; 10 g ae/ha): 90.3%; Percent (%) Visual Control POLCO 51DAAA ([11]; 20 g ae/ha): 84.5%; Percent (%) Visual Control POLCO 51DAAA ([11]; 40 g ae/ha): 87%; Percent (%) Visual Control CHEAL 51DAAA ([12]; 10 g ae/ha): 96.8%; Percent (%) Visual Control CHEAL 51DAAA ([12]; 20 g ae/ha): 98%; Percent (%) Visual Control CHEAL 51DAAA ([12]; 40 g ae/ha): 98%
Nc1c(F)c(-c2ccc3cc[nH]c3c2F)nc(C(=O)OCc2ccccc2)c1Cl [Compound 7, benzyl 4-amino-3-chloro-5-fluoro-6-(7-fluoro-1H-indol-6-yl)picolinate, reference compound]	45	60	74.3	73.3	80.7	89.3	65	73.3	99.3	99.3	97.5	98.8	92.5	92.5	57	50.5	100	100	30	46.7	Percent (%) Visual Control STEME 51DAAA ([10]; 10 g ae/ha): 73.3%; Percent (%) Visual Control STEME 51DAAA ([10]; 20 g ae/ha): 80.8%; Percent (%) Visual Control STEME 51DAAA ([10]; 40 g ae/ha): 83.3%; Percent (%) Visual Control POLCO 51DAAA ([11]; 10 g ae/ha): 79%; Percent (%) Visual Control POLCO 51DAAA ([11]; 20 g ae/ha): 92.8%; Percent (%) Visual Control POLCO 51DAAA ([11]; 40 g ae/ha): 96.8%; Percent (%) Visual Control CHEAL 51DAAA ([12]; 10 g ae/ha): 94.8%; Percent (%) Visual Control CHEAL 51DAAA ([12]; 20 g ae/ha): 98%; Percent (%) Visual Control CHEAL 51DAAA ([12]; 40 g ae/ha): 98%
